Five compounds from patent US20120184744A1, “CRYSTALLINE HYDROCHLORIDE SALTS OF C-MET KINASE INHIBITORS” (priority 2009, published 2012) can be followed below.

What all share (format): physicochemical
Series [1] can be described thus: Solubility in 14.6 wt % IPA in DMF. As to conditions: organic solvent or mixture. The procedure:
To prepare the mono-HCl salt anhydrate Form I of Compound A, dissolve 1.00 g of Compound A freebase monohydrate in 7.0 mL (6.65 g) DMF at 55° C. Next, charge 0.05 eq of HCl. Then, charge 0.25 wt % media-milled seed ([…] of API). The solubility of Compound A HCl seed in 14.6 wt % IPA in DMF is <2 mg/mL. Age seed bed for 1 hr. Next, charge 0.92 eq of HCl over 8 hrs (linear charge rate) holding batch at 55. No dispersion is required. Total HCl charge is 0.97 eq. Cool the batch from 55° C. to 22° C. over 1 hr. Hold batch at 22° C. for one hour, then filter.

The nature of series [2]: Crystal form conversion on exposure to relative humidity. As to conditions: room temperature. The source says: (§1) It rehydrates and converts back to the mono-HCl salt hydrate when exposed to higher than 75% relative humidity at room temperature. The mono-HCl salt anhydrate Form II can also convert to crystalline mono-HCl salt anhydrate Form I when slurried in Acetone:H2O co-solvent or other co-solvent systems with water activity below 0.57-0.60.
The 1.6-HCl salt anhydrate of Compound A is further characterized by reflections corresponding to d-spacings of 5.03, 4.30, and 4.14 angstroms. The 1.6-HCl salt anhydrate of Compound A is even further characterized by reflections corresponding to d-spacings of 3.93, 3.63, and 3.50 angstroms. The 1.6-HCl salt anhydrate converts to the 1.6-HCl salt hydrate upon exposure to 10-95% relative humidity at room temperature.

A short description of series [3]: Physical stability of the solid on storage under controlled temperature/relative humidity. The settings on record: for physical stability after storage: 5 months.
Series [4] can be described thus: Slurry experiment in organic solvent:H2O co-solvent (transition water activity, form conversion). The protocol:
This transition water activity was determined based on slurry experiment in Acetone:H2O, DMF:H2O and THF:H2O co-solvent. […] Crystalline mono-HCl salt hydrate dehydrates and converts to mono-HCl salt anhydrate Form II when exposed to low relative humidity or heated at high temperature.
as §1

Counter-ions that a name gives are not always drawn.

The term solubility denotes the concentration that dissolves in the medium under given conditions.

As to `Cn1cc(-c2cnc3ccc4ccc(CS(=O)(=O)NCc5ccccn5)cc4c(=O)c3c2)cn1` [Compound A HCl seed], the solubility in series [1] was < 2000 µg/mL.

`Cn1cc(-c2cnc3ccc4ccc(CS(=O)(=O)NCc5ccccn5)cc4c(=O)c3c2)cn1` [1.6-HCl salt anhydrate]: the “relative humidity at which it converts to the 1.6-HCl salt hydrate” value in series [2] is listed as 10-95%.

As for `Cn1cc(-c2cnc3ccc4ccc(CS(=O)(=O)NCc5ccccn5)cc4c(=O)c3c2)cn1` [Form I], the “physical stability after storage” value in series [3] (40° C./75% relative humidity), in series [3] (room temperature/53% relative humidity) and in series [3] (room temperature/85% relative humidity) was “physically stable” in each case. In addition, the “solid conversion to the mono-HCl salt hydrate” value in series [3] (solid state, on storage) is “has not been observed”.

For the compound `Cn1cc(-c2cnc3ccc4ccc(CS(=O)(=O)NCc5ccccn5)cc4c(=O)c3c2)cn1` [mono-HCl salt hydrate], the “transition water activity above which the mono-HCl salt hydrate is thermodynamically more stable than mono-HCl salt anhydrate Form I” value in series [4] (room temperature or 40° C., slurry in Acetone:H2O, DMF:H2O and THF:H2O co-solvent) was 0.57-0.60.

As to `Cn1cc(-c2cnc3ccc4ccc(CS(=O)(=O)NCc5ccccn5)cc4c(=O)c3c2)cn1` [mono-HCl salt anhydrate Form II], the “water activity at which it converts to mono-HCl salt anhydrate Form I” value in series [4] (slurried in Acetone:H2O co-solvent or other co-solvent systems) is 0.57-0.60. Also, the “relative humidity at which it rehydrates and converts back to the mono-HCl salt hydrate” value in series [2] is given as “higher than 75%”.
